In patent US8865623B2, “Herbicidally active cyclic diones and derivatives thereof, processes for their preparation, compositions, and method of controlling weeds” (Syngenta Limited, priority 2009, dated 2014):

How the values were obtained:
Format in all cases: in vivo
Lolium perenne (LOLPE) [1] = assay: Pre-emergence herbicidal activity, glasshouse pot test; conditions: Lolium perenne, 312 h; Rate 250 g/ha; pre-emergence spray; evaluated after 13 days; read-out: Pre-emergence activity LOLPE (100=total damage to plant; 0=no damage to plant)
Outline: (§1)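 Potted plants sprayed one day after sowing (pre-emergence) or after 8 days (post-emergence) with formulation in acetone/water (50:50) containing 0.5% Tween 20. Glasshouse at 24/16 °C, 14 h light, 65% humidity; damage scored after 13 days (0 none, 100 total).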

[2] = system: Alopecurus myosuroides (ALOMY); assay: as above; conditions: Alopecurus myosuroides, 312 h; Rate 250 g/ha; pre-emergence spray; evaluated after 13 days; read-out: Pre-emergence activity ALOMY (100=total damage to plant; 0=no damage to plant)
Outline: as §1

[3] = system: Echinochloa crus-galli (ECHCG); assay: as above; conditions: Echinochloa crus-galli, 312 h; Rate 250 g/ha; pre-emergence spray; evaluated after 13 days; read-out: Pre-emergence activity ECHCG (100=total damage to plant; 0=no damage to plant)
Outline: as §1

Avena fatua (AVEFA) [4] = assay: as above; conditions: Avena fatua, 312 h; Rate 250 g/ha; pre-emergence spray; evaluated after 13 days; read-out: Pre-emergence activity AVEFA (100=total damage to plant; 0=no damage to plant)
Outline: as §1

Lolium perenne (LOLPE) [5] = assay: Post-emergence herbicidal activity, glasshouse pot test; conditions: Lolium perenne, 312 h, rate 250 g/ha, evaluated after 13 days, glasshouse, read-out: Post-emergence activity LOLPE (100=total damage to plant; 0=no damage to plant)
Outline: as §1

[6] = system: Alopecurus myosuroides (ALOMY); assay: as above; conditions: Alopecurus myosuroides, 312 h, rate 250 g/ha, evaluated after 13 days, glasshouse, read-out: Post-emergence activity ALOMY (100=total damage to plant; 0=no damage to plant)
Outline: as §1

[7] = system: Echinochloa crus-galli (ECHCG); assay: as above; conditions: Echinochloa crus-galli, 312 h, rate 250 g/ha, evaluated after 13 days, glasshouse, read-out: Post-emergence activity ECHCG (100=total damage to plant; 0=no damage to plant)
Outline: as §1

Avena fatua (AVEFA) [8] = assay: as above; conditions: Avena fatua, 312 h, rate 250 g/ha, evaluated after 13 days, glasshouse, read-out: Post-emergence activity AVEFA (100=total damage to plant; 0=no damage to plant)
Outline: as §1

Structure (SMILES)	pest or weed control at 250 g/ha (Lolium perenne (LOLPE) [1]) [%]	pest or weed control at 250 g/ha [2] [%]	pest or weed control at 250 g/ha [3] [%]	pest or weed control at 250 g/ha (Avena fatua (AVEFA) [4]) [%]	pest or weed control at 250 g/ha (Lolium perenne (LOLPE) [5]) [%]	pest or weed control at 250 g/ha [6] [%]	pest or weed control at 250 g/ha [7] [%]	pest or weed control at 250 g/ha (Avena fatua (AVEFA) [8]) [%]
CCc1ccc(Oc2ccc(C#N)cc2C(F)(F)F)cc1C1=C(O)CC(C)(C)CC1=O [Example A-290]	0	0	20	0	10	0	60	0
CCc1ccc(Oc2cnc3ccccc3n2)cc1C1=C(O)CC(C)(C)CC1=O [Example A-291]	100	70	100	90	100	100	100	100
CCc1ccc(Oc2ccc3ccccc3n2)cc1C1=C(O)CC(C)(C)CC1=O [Example A-292]	100	90	100	50	90	100	100	90
CCc1ccc(Oc2nc3cc(Cl)ccc3s2)cc1C1=C(O)CC(C)(C)CC1=O [Example A-293]	100	80	100	30	100	100	100	100
CCc1ccc(Oc2ccc([N+](=O)[O-])cc2C(F)(F)F)cc1C1=C(O)CC(C)(C)CC1=O [Example A-294]	70	60	90	0	20	40	80	40
CCc1ccc(Oc2ccc(C(F)(F)F)c(C#N)c2)cc1C1=C(O)CC(C)(C)CC1=O [Example A-295]	50	50	70	20	40	80	100	60
CCc1ccc(Oc2ncc(Br)cn2)cc1C1=C(O)CC(C)(C)CC1=O [Example A-297]	100	70	100	50	100	100	100	100
CCc1ccc(Oc2cnc3cc(F)ccc3n2)cc1C1=C(O)CC(C)(C)CC1=O [Example A-298]	100	100	100	100	100	100	100	100
CCc1ccc(Oc2nc3ccc([N+](=O)[O-])cc3s2)cc1C1=C(O)CC(C)(C)CC1=O [Example A-299]	100	50	100	20	80	90	100	90
CCc1ccc(Oc2nc3ccc(OC)cc3s2)cc1C1=C(O)CC(C)(C)CC1=O [Example A-300]	100	80	100	0	60	80	100	70
CCc1ccc(Oc2ccc(Cl)cn2)cc1C1=C(O)CC(C)(C)CC1=O [Example A-301]	100	70	100	60	90	100	100	60
CC1(C)OC(C)(C)C(O)=C(c2cc(Oc3ccc(Cl)cc3)ccc2OC(F)(F)F)C1=O [Example A-302]	20	10	60	40	70	60	100	50
CCc1ccc(Oc2nc3ccccc3s2)cc1C1=C(O)CC2(CCOCC2)CC1=O [Example A-303]	90	80	100	80	100	100	100	100
CCc1ccc(Oc2nc3ccc(Cl)cc3s2)cc1C1=C(O)CC2(CCOCC2)CC1=O [Example A-304]	70	80	100	80	100	100	100	100
CCc1ccc(Oc2cnc3ccc(Br)cc3n2)cc1C1=C(O)CC2(CCOCC2)CC1=O [Example A-305]	90	80	100	60	100	100	100	100
CCc1ccc(Oc2ccc(C#N)cc2C(F)(F)F)cc1C1=C(O)CC2(CCOCC2)CC1=O [Example A-306]	70	60	100	0	60	70	100	80
CCc1ccc(Oc2cnc3ccccc3n2)cc1C1=C(O)CC2(CCOCC2)CC1=O [Example A-307]	90	100	100	70	100	100	100	100
CCc1ccc(Oc2nc3cc(Cl)ccc3s2)cc1C1=C(O)CC2(CCOCC2)CC1=O [Example A-308]	70	90	100	80	100	90	100	100
CCc1ccc(Oc2ccc([N+](=O)[O-])cc2C(F)(F)F)cc1C1=C(O)CC2(CCOCC2)CC1=O [Example A-309]	20	40	70	0	50	50	100	70
CCc1ccc(Oc2ncc(Br)cn2)cc1C1=C(O)CC2(CCOCC2)CC1=O [Example A-310]	70	100	100	50	90	100	100	80
CCc1ccc(Oc2cnc3cc(F)ccc3n2)cc1C1=C(O)CC2(CCOCC2)CC1=O [Example A-311]	100	90	100	100	100	100	100	100
